Laboratory results reported in ChEMBL document CHEMBL3991601, “The target landscape of clinical kinase drugs” (Science, 2017).
Active and inactive are the calls of the source.

Key:
[1] = target: T1, Beta-adrenergic receptor kinase 1 (Homo sapiens, UniProt P25098)
T1 sequence (P25098 whole entry): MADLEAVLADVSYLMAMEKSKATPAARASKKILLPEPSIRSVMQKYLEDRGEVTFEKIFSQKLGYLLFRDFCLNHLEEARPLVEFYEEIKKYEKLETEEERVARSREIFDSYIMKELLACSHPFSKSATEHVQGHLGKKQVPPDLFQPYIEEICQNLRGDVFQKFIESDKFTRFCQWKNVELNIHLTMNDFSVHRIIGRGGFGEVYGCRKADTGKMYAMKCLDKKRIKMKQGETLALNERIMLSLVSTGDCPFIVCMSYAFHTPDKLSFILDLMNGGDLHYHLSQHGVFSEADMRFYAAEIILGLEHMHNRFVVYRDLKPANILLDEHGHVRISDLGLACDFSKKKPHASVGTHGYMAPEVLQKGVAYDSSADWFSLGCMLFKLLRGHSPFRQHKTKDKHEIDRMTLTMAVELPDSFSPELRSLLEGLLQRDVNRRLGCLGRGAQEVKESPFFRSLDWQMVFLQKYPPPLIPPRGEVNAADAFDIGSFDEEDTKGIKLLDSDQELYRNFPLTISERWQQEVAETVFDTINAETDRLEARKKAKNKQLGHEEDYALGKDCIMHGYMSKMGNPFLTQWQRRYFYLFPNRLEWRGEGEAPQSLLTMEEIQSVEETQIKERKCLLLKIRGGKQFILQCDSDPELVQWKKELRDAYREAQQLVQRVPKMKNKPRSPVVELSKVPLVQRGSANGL

[2] = target: cAMP-dependent protein kinase catalytic subunit gamma (Homo sapiens, UniProt P22612)
cAMP-dependent protein kinase catalytic subunit gamma, sequence (P22612 whole entry): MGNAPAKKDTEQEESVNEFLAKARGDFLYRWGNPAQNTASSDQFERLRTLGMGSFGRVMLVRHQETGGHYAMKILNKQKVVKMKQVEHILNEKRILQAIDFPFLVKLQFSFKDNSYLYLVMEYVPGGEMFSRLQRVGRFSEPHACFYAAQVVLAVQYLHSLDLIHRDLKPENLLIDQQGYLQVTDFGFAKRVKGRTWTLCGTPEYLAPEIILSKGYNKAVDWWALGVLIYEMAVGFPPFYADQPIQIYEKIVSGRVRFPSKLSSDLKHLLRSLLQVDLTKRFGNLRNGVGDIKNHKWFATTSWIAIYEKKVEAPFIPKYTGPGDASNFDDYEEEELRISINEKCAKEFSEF

[3] = target: Cyclin-dependent kinase 4 (Homo sapiens, UniProt P11802)
Cyclin-dependent kinase 4, sequence (P11802 whole entry): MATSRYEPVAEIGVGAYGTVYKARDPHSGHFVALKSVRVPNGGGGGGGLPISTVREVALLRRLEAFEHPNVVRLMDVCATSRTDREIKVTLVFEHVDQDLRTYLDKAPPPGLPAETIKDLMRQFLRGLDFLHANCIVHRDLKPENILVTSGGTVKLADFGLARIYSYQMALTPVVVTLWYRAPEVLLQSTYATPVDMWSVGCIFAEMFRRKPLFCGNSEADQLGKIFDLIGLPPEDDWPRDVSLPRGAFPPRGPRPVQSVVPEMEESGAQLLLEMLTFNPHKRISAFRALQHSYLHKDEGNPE

[4] = target: T2, Mitogen-activated protein kinase kinase kinase kinase 3 (Homo sapiens, UniProt Q8IVH8)
T2 sequence (Q8IVH8 whole entry): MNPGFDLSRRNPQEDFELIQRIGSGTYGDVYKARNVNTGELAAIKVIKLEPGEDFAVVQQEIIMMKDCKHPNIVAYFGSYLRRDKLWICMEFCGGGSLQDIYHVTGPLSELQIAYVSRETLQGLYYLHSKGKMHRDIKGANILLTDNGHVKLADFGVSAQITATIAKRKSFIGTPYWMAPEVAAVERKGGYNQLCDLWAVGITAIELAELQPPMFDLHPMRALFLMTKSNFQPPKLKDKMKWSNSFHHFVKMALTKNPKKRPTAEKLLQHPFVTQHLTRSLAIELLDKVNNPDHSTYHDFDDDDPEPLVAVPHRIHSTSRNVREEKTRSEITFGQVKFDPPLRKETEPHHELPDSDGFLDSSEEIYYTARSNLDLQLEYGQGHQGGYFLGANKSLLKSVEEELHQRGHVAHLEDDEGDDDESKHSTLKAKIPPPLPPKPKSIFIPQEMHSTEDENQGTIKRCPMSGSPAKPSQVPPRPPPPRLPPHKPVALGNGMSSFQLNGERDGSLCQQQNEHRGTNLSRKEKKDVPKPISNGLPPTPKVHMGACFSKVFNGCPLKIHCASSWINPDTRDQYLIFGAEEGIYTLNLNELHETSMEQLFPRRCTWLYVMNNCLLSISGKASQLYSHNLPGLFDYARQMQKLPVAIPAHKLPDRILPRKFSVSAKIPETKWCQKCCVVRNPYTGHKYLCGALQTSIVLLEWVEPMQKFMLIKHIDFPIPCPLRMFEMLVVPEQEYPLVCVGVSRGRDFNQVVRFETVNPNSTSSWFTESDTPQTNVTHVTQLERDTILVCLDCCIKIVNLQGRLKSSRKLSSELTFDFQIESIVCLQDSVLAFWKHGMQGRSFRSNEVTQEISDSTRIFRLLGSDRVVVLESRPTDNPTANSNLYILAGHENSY

[5] = target: T3, Membrane-associated tyrosine- and threonine-specific cdc2-inhibitory kinase (Homo sapiens, UniProt Q99640)
T3 sequence (Q99640 whole entry): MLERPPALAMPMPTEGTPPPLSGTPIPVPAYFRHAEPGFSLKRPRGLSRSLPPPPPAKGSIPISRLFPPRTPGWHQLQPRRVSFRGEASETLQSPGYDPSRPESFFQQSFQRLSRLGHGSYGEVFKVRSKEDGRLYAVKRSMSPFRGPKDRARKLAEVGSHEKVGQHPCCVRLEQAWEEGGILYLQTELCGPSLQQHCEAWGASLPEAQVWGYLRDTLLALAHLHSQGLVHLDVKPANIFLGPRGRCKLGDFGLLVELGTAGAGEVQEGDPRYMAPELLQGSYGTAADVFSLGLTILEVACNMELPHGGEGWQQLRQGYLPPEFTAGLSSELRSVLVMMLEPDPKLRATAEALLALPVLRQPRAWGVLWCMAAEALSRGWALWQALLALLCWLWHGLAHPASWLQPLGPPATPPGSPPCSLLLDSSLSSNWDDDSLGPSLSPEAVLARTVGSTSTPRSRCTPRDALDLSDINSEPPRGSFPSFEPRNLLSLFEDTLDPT

[6] = target: Serine/threonine-protein kinase SIK3 (Homo sapiens, UniProt Q9Y2K2)
Serine/threonine-protein kinase SIK3, sequence (Q9Y2K2 whole entry): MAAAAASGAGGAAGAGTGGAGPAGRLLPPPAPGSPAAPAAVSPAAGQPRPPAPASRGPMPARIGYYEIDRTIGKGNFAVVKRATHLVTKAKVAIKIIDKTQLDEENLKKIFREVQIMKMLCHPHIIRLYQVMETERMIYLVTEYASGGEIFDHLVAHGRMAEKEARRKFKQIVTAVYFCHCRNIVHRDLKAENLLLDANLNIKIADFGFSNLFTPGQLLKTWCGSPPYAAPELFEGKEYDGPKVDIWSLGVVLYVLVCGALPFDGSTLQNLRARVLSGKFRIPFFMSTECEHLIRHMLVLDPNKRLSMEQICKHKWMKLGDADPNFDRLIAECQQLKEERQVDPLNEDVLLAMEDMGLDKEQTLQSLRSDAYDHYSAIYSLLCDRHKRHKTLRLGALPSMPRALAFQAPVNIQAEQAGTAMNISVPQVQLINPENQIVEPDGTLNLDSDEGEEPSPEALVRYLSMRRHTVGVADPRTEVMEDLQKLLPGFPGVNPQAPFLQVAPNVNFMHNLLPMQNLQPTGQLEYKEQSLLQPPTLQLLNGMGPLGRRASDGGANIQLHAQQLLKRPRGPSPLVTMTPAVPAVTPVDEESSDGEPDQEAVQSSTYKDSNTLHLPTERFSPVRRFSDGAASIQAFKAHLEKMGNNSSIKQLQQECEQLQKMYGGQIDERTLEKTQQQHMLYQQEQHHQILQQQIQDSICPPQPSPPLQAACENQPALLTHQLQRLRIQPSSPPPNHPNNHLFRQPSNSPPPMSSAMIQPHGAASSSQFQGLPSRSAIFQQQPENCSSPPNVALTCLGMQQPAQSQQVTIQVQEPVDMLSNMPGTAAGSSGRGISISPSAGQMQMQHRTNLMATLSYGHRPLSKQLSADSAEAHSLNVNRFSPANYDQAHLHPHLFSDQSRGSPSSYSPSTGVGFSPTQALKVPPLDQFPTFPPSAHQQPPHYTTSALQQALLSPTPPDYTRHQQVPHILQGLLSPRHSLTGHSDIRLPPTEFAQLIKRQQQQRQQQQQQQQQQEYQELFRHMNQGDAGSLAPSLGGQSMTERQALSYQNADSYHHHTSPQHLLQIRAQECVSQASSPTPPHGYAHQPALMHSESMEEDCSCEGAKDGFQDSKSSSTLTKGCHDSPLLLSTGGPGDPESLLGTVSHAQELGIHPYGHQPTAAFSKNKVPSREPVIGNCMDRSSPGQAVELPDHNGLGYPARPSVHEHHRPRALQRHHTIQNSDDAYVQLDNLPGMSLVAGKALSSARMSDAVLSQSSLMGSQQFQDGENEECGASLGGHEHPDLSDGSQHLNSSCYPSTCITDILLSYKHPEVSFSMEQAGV

[7] = target: Mitogen-activated protein kinase 7 (Homo sapiens, UniProt Q13164)
Mitogen-activated protein kinase 7, sequence (Q13164 whole entry): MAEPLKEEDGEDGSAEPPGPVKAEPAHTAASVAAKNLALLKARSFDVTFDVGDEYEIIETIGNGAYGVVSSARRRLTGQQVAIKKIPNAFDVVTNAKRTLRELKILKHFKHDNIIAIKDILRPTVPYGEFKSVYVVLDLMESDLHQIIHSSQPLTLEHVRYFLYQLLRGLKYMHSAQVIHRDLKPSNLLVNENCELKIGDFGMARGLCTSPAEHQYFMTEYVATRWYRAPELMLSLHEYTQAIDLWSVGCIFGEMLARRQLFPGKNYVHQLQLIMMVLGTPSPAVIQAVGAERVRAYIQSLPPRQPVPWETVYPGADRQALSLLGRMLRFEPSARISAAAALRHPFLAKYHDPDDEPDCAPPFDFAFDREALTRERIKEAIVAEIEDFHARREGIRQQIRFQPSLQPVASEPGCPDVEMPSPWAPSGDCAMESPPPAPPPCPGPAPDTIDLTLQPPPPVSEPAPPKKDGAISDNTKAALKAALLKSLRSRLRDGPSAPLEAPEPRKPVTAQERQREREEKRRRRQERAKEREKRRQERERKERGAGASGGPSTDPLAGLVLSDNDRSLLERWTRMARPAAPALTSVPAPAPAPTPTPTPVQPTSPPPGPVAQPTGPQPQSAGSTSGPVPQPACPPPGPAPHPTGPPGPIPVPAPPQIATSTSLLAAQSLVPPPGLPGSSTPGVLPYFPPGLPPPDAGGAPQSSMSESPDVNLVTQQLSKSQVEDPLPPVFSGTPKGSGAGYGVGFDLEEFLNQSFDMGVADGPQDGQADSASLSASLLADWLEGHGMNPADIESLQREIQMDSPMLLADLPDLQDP

[8] = target: Cyclin-dependent kinase 3 (Homo sapiens, UniProt Q00526)
Cyclin-dependent kinase 3, sequence (Q00526 whole entry): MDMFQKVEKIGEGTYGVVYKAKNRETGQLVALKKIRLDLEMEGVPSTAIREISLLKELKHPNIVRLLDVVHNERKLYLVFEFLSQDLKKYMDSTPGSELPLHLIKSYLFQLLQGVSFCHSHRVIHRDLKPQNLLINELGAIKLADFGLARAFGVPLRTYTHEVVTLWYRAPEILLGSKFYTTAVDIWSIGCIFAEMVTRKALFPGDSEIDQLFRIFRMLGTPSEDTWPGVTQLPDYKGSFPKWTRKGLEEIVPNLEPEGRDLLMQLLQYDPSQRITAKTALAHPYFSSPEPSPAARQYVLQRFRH

Measured: Kd
Note: in the data inactive means no Kd found up to 30 µM.

CCn1c(-c2nonc2N)nc2c(C#CC(C)(C)O)ncc(OC[C@H]3CCCNC3)c21 [GSK-690693]
inactive: [1] > 30 µM | [2] > 30 µM

CNC(=O)c1ccc(-c2cnc3ncc(Cc4ccc5ncccc5c4)n3n2)cc1F [CAPMATINIB]
inactive: [3] > 30 µM | [4] > 30 µM | [1] > 30 µM | [5] > 30 µM | [2] > 30 µM | [6] > 30 µM | [7] > 30 µM

Nc1nc(N)c2nc(-c3cccc(O)c3)c(-c3cccc(O)c3)nc2n1 [TG100-115]
inactive: [1] > 30 µM | [2] > 30 µM

CN1CCN(c2ccc3nc(-c4c(N)c5c(F)cccc5[nH]c4=O)[nH]c3c2)CC1 [DOVITINIB]
inactive: [1] > 30 µM | [2] > 30 µM

C1=C/COCc2cc(ccc2OCCN2CCCC2)Nc2nccc(n2)-c2cccc(c2)COC/1 [PACRITINIB]
inactive: [3] > 30 µM | [8] > 30 µM | [4] > 30 µM | [1] > 30 µM | [5] > 30 µM | [2] > 30 µM | [6] > 30 µM

CCc1cnn2c(NCc3ccc[n+]([O-])c3)cc(N3CCCC[C@H]3CCO)nc12 [DINACICLIB]
inactive: [4] > 30 µM | [1] > 30 µM | [5] > 30 µM | [2] > 30 µM | [6] > 30 µM | [7] > 30 µM

COc1cc2nccc(Oc3ccc(NC(=O)NC4CC4)c(Cl)c3)c2cc1C(N)=O [LENVATINIB]
inactive: [3] > 30 µM | [1] > 30 µM | [5] > 30 µM | [2] > 30 µM | [6] > 30 µM | [7] > 30 µM

Cc1cc([C@@H](C)Nc2ccccc2C(=O)O)c2nc(N3CCOCC3)cc(=O)n2c1 [AZD-6482]
inactive: [8] > 30 µM | [4] > 30 µM | [1] > 30 µM | [5] > 30 µM | [2] > 30 µM | [6] > 30 µM | [7] > 30 µM

CN(C)C(=O)c1cc2cnc(Nc3ccc(N4CCNCC4)cn3)nc2n1C1CCCC1 [RIBOCICLIB]
inactive: [8] > 30 µM | [4] > 30 µM | [1] > 30 µM | [5] > 30 µM | [2] > 30 µM | [6] > 30 µM | [7] > 30 µM

COCCNCc1ccc(-c2cc3nccc(Oc4ccc(NC(=S)NC(=O)Cc5ccc(F)cc5)cc4F)c3s2)nc1 [GLESATINIB]
inactive: [3] > 30 µM | [8] > 30 µM | [4] > 30 µM | [1] > 30 µM | [5] > 30 µM | [6] > 30 µM | [7] > 30 µM

Cc1cn(-c2cc(NC(=O)c3ccc(C)c(Nc4nccc(-c5cccnc5)n4)c3)cc(C(F)(F)F)c2)cn1 [NILOTINIB]
inactive: [1] > 30 µM | [2] > 30 µM

O=C(c1ccc(F)c(F)c1Nc1ccc(I)cc1F)N1CC(O)([C@@H]2CCCCN2)C1 [COBIMETINIB]
inactive: [3] > 30 µM | [4] > 30 µM | [1] > 30 µM | [5] > 30 µM | [2] > 30 µM | [6] > 30 µM | [7] > 30 µM
